Patent US20260297081A1, “COMPOUNDS AND METHODS OF TREATING CANCERS” (Cullgen Inc., priority 2023, published 2026)

tested on: MCF7 cells; assay: Anti-proliferation (viability) of MCF7 cells (Table 7, FIG. 2B); type: cell-based; settings: Homo sapiens, MCF7, MCF7 cells, 3-6 days, 10-point serial dilution; read-out: GI IC50 in MCF-7

SMILES	IC50
CNc1ccc(C(=O)Nc2ccc(N(C)C)nn2)c(NC2CC(C(=O)NC3CC4(CCN(c5ccc(Nc6ncc7c(C)c(C(C)=O)c(=O)n(C8CCCC8)c7n6)nc5)CC4)C3)C2)n1 (centres unmarked) [CPD-375, 2-((3-((7-(6-((6-acetyl-8-cyclopentyl-5-methyl-7-oxo-7,8-dihydropyrido[2,3-d]pyrimidin-2-yl)amino)pyridin-3-yl)-7-azaspiro[3.5]nonan-2-yl)carbamoyl)cyclobutyl)amino)-N-(6-(dimethylamino)pyridazin-3-yl)-6-(methylamino)nicotinamide]	> 0.1 µM
CNc1ccc(C(=O)Nc2ccc(N(C)C)nn2)c(NC2CC3(C2)CC(C(=O)N2CC(C4CCN(c5ccc(Nc6ncc7c(C)c(C(C)=O)c(=O)n(C8CCCC8)c7n6)nc5)CC4)C2)C3)n1 (centres unmarked) [CPD-376, 2-((6-(3-(1-(6-((6-acetyl-8-cyclopentyl-5-methyl-7-oxo-7,8-dihydropyrido[2,3-d]pyrimidin-2-yl)amino)pyridin-3-yl)piperidin-4-yl)azetidine-1-carbonyl)spiro[3.3]heptan-2-yl)amino)-N-(6-(dimethylamino)pyridazin-3-yl)-6-(methylamino)nicotinamide]	> 0.1 µM
CC(=O)c1c(C)c2cnc(Nc3ccc(N4CCN(CC(=O)NC(C)C5CC(Nc6nc(NC(C)C)ccc6C(=O)Nc6cc(C)on6)C5)CC4)cn3)nc2n(C2CCCC2)c1=O (centres unmarked) [CPD-377, 2-((3-(1-(2-(4-(6-((6-acetyl-8-cyclopentyl-5-methyl-7-oxo-7,8-dihydropyrido[2,3-d]pyrimidin-2-yl)amino)pyridin-3-yl)piperazin-1-yl)acetamido)ethyl)cyclobutyl)amino)-6-(isopropylamino)-N-(5-methylisoxazol-3-yl)nicotinamide]	0.05 to 0.1 µM
[2H]C([2H])([2H])Nc1ccc(C(=O)Nc2ccc(N(C)C)nn2)c(NC2CC3(C2)CC(C(=O)N2CC4(CCN(c5ccc(Nc6ncc7c(C)c(C(C)=O)c(=O)n(C8CCCC8)c7n6)nc5)C4)C2)C3)n1 (centres unmarked) [CPD-378, 2-((6-(6-(6-((6-acetyl-8-cyclopentyl-5-methyl-7-oxo-7,8-dihydropyrido[2,3-d]pyrimidin-2-yl)amino)pyridin-3-yl)-2,6-diazaspiro[3.4]octane-2-carbonyl)spiro[3.3]heptan-2-yl)amino)-N-(6-(dimethylamino)pyridazin-3-yl)-6-((methyl-d3)amino)nicotinamide]	> 0.1 µM
[2H]C([2H])([2H])Nc1ccc(C(=O)Nc2ccc(N(C)C)nn2)c(NC2CC3(C2)CC(C(=O)N2CCC4(CCN(c5ccc(Nc6ncc7c(C)c(C(C)=O)c(=O)n(C8CCCC8)c7n6)nc5)C4)C2)C3)n1 (centres unmarked) [CPD-379, 2-((6-(7-(6-((6-acetyl-8-cyclopentyl-5-methyl-7-oxo-7,8-dihydropyrido[2,3-d]pyrimidin-2-yl)amino)pyridin-3-yl)-2,7-diazaspiro[4.4]nonane-2-carbonyl)spiro[3.3]heptan-2-yl)amino)-N-(6-(dimethylamino)pyridazin-3-yl)-6-((methyl-d3)amino)nicotinamide]	> 0.1 µM
[2H]C([2H])([2H])Nc1ccc(C(=O)Nc2ccc(N(C)C)nn2)c(NC2CC3(C2)CC(C(=O)N2CCC4(CCN(c5ccc(Nc6ncc7c(C)c(C(C)=O)c(=O)n(C8CCCC8)c7n6)nc5)CC4)C2)C3)n1 (centres unmarked) [CPD-380, 2-((6-(8-(6-((6-acetyl-8-cyclopentyl-5-methyl-7-oxo-7,8-dihydropyrido[2,3-d]pyrimidin-2-yl)amino)pyridin-3-yl)-2,8-diazaspiro[4.5]decane-2-carbonyl)spiro[3.3]heptan-2-yl)amnion)-N-(6-(dimethylamino)pyridazin-3-yl)-6-((methyl-d3)amnion)nicotinamide]	> 0.1 µM
CNc1ccc(C(=O)Nc2ccc(N(C)C)nn2)c(NC2CC(C(=O)N3CCC4(CCN(c5ccc(Nc6ncc7c(C)c(C(C)=O)c(=O)n(C8CCCC8)c7n6)nc5)CC4)C3)C2)n1 (centres unmarked) [CPD-381, 2-((3-(8-(6-((6-acetyl-8-cyclopentyl-5-methyl-7-oxo-7,8-dihydropyrido[2,3-d]pyrimidin-2-yl)amino)pyridin-3-yl)-2,8-diazaspiro[4.5]decane-2-carbonyl)cyclobutyl)amino)-N-(6-(dimethylamino)pyridazin-3-yl)-6-(methylamino)nicotinamide]	> 0.1 µM
CC(=O)c1c(C)c2cnc(Nc3ccc(N4CCC(NCC(=O)NC5CC(Nc6nc(NC(C)C)ccc6C(=O)Nc6ccc(N(C)C)nn6)C5)CC4)cn3)nc2n(C2CCCC2)c1=O (centres unmarked) [CPD-382, 2-((3-(2-((1-(6-((6-acetyl-8-cyclopentyl-5-methyl-7-oxo-7,8-dihydropyrido[2,3-d]pyrimidin-2-yl)amino)pyridin-3-yl)piperidin-4-yl)amino)acetamido)cyclobutyl)amino)-N-(6-(dimethylamino)pyridazin-3-yl)-6-(isopropylamino)nicotinamide]	0.05 to 0.1 µM
[2H]C([2H])([2H])Nc1ccc(C(=O)Nc2ccc(N(C)C)nn2)c(NC2CC23CCN(C(=O)CC(C)N2CCN(c4ccc(Nc5ncc6c(C)c(C(C)=O)c(=O)n(C7CCCC7)c6n5)nc4)CC2)CC3)n1 (centres unmarked) [CPD-383, 2-((6-(3-(4-(6-((6-acetyl-8-cyclopentyl-5-methyl-7-oxo-7,8-dihydropyrido[2,3-d]pyrimidin-2-yl)amino)pyridin-3-yl)piperazin-1-yl)butanoyl)-6-azaspiro[2.5]octan-1-yl)amino)-N-(6-(dimethylamino)pyridazin-3-yl)-6-((methyl-d3)amino)nicotinamide]	> 0.1 µM
CNc1ccc(C(=O)Nc2ccc(N(C)C)nn2)c(NC2CCC(C(=O)N3CCC4(CCN(c5ccc(Nc6ncc7c(C)c(C(C)=O)c(=O)n(C8CCCC8)c7n6)nc5)CC4)C3)CC2)n1 (centres unmarked) [CPD-385, 2-((4-(8-(6-((6-acetyl-8-cyclopentyl-5-methyl-7-oxo-7,8-dihydropyrido[2,3-d]pyrimidin-2-yl)amino)pyridin-3-yl)-2,8-diazaspiro[4.5]decane-2-carbonyl)cyclohexyl)amino)-N-(6-(dimethylamino)pyridazin-3-yl)-6-(methylamino)nicotinamide]	0.05 to 0.1 µM
CC(=O)c1c(C)c2cnc(Nc3ccc(CC4CCN(CC(=O)N5CCC(Nc6nc(NC(C)C)ccc6C(=O)Nc6ccc(N(C)C)nn6)CC5)CC4)cn3)nc2n(C2CCCC2)c1=O [CPD-386, 2-((1-(2-(4-((6-((6-acetyl-8-cyclopentyl-5-methyl-7-oxo-7,8-dihydropyrido[2,3-d]pyrimidin-2-yl)amino)pyridin-3-yl)methyl)piperidin-1-yl)acetyl)piperidin-4-yl)amino)-N-(6-(dimethylamino)pyridazin-3-yl)-6-(isopropylamino)nicotinamide]	> 0.1 µM
CC(=O)c1c(C)c2cnc(Nc3ccc(N4CCN(CC(=O)NC(C)(C)C5CC(Nc6nc(NC(C)C)ccc6C(=O)Nc6cc(C)n(C)n6)C5)CC4)cn3)nc2n(C2CCCC2)c1=O (centres unmarked) [CPD-387, 2-((3-(2-(2-(4-(6-((6-acetyl-8-cyclopentyl-5-methyl-7-oxo-7,8-dihydropyrido[2,3-d]pyrimidin-2-yl)amino)pyridin-3-yl)piperazin-1-yl)acetamido)propan-2-yl)cyclobutyl)amino)-N-(1,5-dimethyl-1H-pyrazol-3-yl)-6-(isopropylamino)nicotinamide]	0.05 to 0.1 µM
CNc1ccc(C(=O)Nc2ccc(N(C)C)nn2)c(NC2CC(C(=O)NC3CCC4(CC3)CCN(c3ccc(Nc5ncc6c(C)c(C(C)=O)c(=O)n(C7CCCC7)c6n5)nc3)CC4)C2)n1 (centres unmarked) [CPD-388, 2-((3-((3-(6-((6-acetyl-8-cyclopentyl-5-methyl-7-oxo-7,8-dihydropyrido[2,3-d]pyrimidin-2-yl)amino)pyridin-3-yl)-3-azaspiro[5.5]undecan-9-yl)carbamoyl)cyclobutyl)amino)-N-(6-(dimethylamino)pyridazin-3-yl)-6-(methylamino)nicotinamide]	> 0.1 µM
CC(=O)c1c(C)c2cnc(Nc3ccc(C4CCC(NCC(=O)N5CCC(Nc6nc(NC(C)C)ccc6C(=O)Nc6ccc(N(C)C)nn6)CC5)CC4)cn3)nc2n(C2CCCC2)c1=O (centres unmarked) [CPD-389, 2-((1-((4-(6-((6-acetyl-8-cyclopentyl-5-methyl-7-oxo-7,8-dihydropyrido[2,3-d]pyrimidin-2-yl)amino)pyridin-3-yl)cyclohexyl)glycyl)piperidin-4-yl)amino)-N-(6-(dimethylamino)pyridazin-3-yl)-6-(isopropylamino)nicotinamide]	> 0.1 µM
CC(=O)c1c(C)c2cnc(Nc3ccc(N4CCC(N5CC(C(=O)N6CCC(Nc7nc(NC(C)C)ccc7C(=O)Nc7ccc(N(C)C)nn7)CC6)C5)CC4)cn3)nc2n(C2CCCC2)c1=O [CPD-390, 2-((1-(1-(1-(6-((6-acetyl-8-cyclopentyl-5-methyl-7-oxo-7,8-dihydropyrido[2,3-d]pyrimidin-2-yl)amino)pyridin-3-yl)piperidin-4-yl)azetidine-3-carbonyl)piperidin-4-yl)amino)-N-(6-(dimethylamino)pyridazin-3-yl)-6-(isopropylamino)nicotinamide]	> 0.1 µM
CC(=O)c1c(C)c2cnc(Nc3ccc(N4CCC(N5CC(C(=O)N6CC7(CC(Nc8nc(NC(C)C)ccc8C(=O)Nc8ccc(N(C)C)nn8)C7)C6)C5)CC4)cn3)nc2n(C2CCCC2)c1=O [CPD-391, 2-((2-(1-(1-(6-((6-acetyl-8-cyclopentyl-5-methyl-7-oxo-7,8-dihydropyrido[2,3-d]pyrimidin-2-yl)amino)pyridin-3-yl)piperidin-4-yl)azetidine-3-carbonyl)-2-azaspiro[3.3]heptan-6-yl)amino)-N-(6-(dimethylamino)pyridazin-3-yl)-6-(isopropylamino)nicotinamide]	> 0.1 µM
CC(=O)c1c(C)c2cnc(Nc3ccc(CN4CCC(CC(=O)N5CCC(Nc6nc(NC(C)C)ccc6C(=O)Nc6ccc(N(C)C)nn6)CC5)CC4)cn3)nc2n(C2CCCC2)c1=O [CPD-392, 2-((1-(2-(1-((6-((6-acetyl-8-cyclopentyl-5-methyl-7-oxo-7,8-dihydropyrido[2,3-d]pyrimidin-2-yl)amino)pyridin-3-yl)methyl)piperidin-4-yl)acetyl)piperidin-4-yl)amino)-N-(6-(dimethylamino)pyridazin-3-yl)-6-(isopropylamino)nicotinamide]	> 0.1 µM
